On the set-up of data set [1]: species or system Wistar rats. To be noted: rat, in vivo.
Data set [2] in a line: In vivo vancomycin detection in ISF versus plasma after intravenous vancomycin. Also on record: species or system Wistar rats. To be noted: Wistar, rat, 1 mg/rat; for concentration at 5 min: 5 min after intravenous injection; for concentration at 30 min / concentration at 60 min: intravenous; for concentration at 30 min: 30 min following injection; for concentration at 60 min: 60 min after injection. The procedure:
In vivo collection of ISF and glucose and vancomycin detection: All animal experiments were approved by the Animal Care and Use Committee of University of California, Los Angeles, and procedures for animals were performed in accordance with the relevant guidelines and regulations. Wistar rats (4-week-old, approximately 70-80 g) were anesthetized with 50 mg/kg sodium pentobarbital. The dorsal hair of each rat was shaved. After the initial mass of the GelMA patch 10 was weighed, it was applied to the dorsal skin of the rat using the thumb and index finger. Gauze was used to fix the patches 10 on the skin. ten minutes later, the patch 10 was removed and the final mass was recorded. To quantify the concentration of the delivered molecules, the wet patch 10 was transferred into a centrifuge tube with 200 μL of DI water. After centrifugation at 12000 rpm for 10 min, the solution in the tube was transferred to be tested. In addition, blood samples were also collected from the tail vein for glucose detection and the plasma was isolated via centrifugation for vancomycin detection. For histopathology, the skin was harvested and fixed in 10% neutral buffered formalin (BBC Biochemical, WA, USA), processed by a standard method, and embedded in paraffin. 4 μm in thickness tissue sections were stained with hematoxylin and eosin (H&E, BBC Biochemical) to confirm that GelMA microneedles 14 effectively penetrate the skin.
In the glucose detection experiment, the rats were intravenously injected with 1 mL of 0.2 g/mL glucose in saline. The glucose concentrations in ISF were tested using Glucose Assay Kit (Sigma) and the glucose levels in blood were tested using a glucometer (Clarity Diagnostics, US). In the vancomycin detection experiment, the rats were intravenously injected with 1 mL vancomycin at a concentration of 1 mg/mL in saline. The vancomycin concentration in ISF and plasma samples was also quantified by LC-MS/MS analysis (mentioned above).

Setting [3] is: interstitial fluid (ISF), read-out: vancomycin concentration in ISF.
The mark [4] stands for this setting: plasma, read-out: vancomycin concentration in plasma.

Here are results for 2 molecules from patent publication US12544547B2, “Gelatin-based microneedle patch for minimally-invasive extraction of bodily fluids” (THE REGENTS OF THE UNIVERSITY OF CALIFORNIA, priority 2020, dated 2026).

Where two headings read alike, the source gives them in different places. Where only a bound is given, the exact number is not on record here.

Consider “gelatin methacryloyl (GelMA) [GelMA microneedle patch]”, for which, in data set [1], the “skin recovery time after removing the patch” value was no more than 20 min.
In the case of `CN[C@H](CC(C)C)C(=O)N[C@H]1C(=O)N[C@@H](CC(N)=O)C(=O)N[C@H]2C(=O)N[C@H]3C(=O)N[C@H](C(=O)N[C@H](C(=O)O)c4cc(O)cc(O)c4-c4cc3ccc4O)[C@H](O)c3ccc(c(Cl)c3)Oc3cc2cc(c3O[C@@H]2O[C@H](CO)[C@@H](O)[C@H](O)[C@H]2O[C@H]2C[C@](C)(N)[C@H](O)[C@H](C)O2)Oc2ccc(cc2Cl)[C@H]1O` [vancomycin], in data set [2] (setting [3]), the concentration at 5 min came out at 5930 ± 180 ng/mL, the concentration at 30 min was roughly 6500 ng/mL and the concentration at 60 min was roughly 4000 ng/mL. Besides, in data set [2] (setting [4]), the concentration at 5 min was found to be 8270 ± 130 ng/mL, the concentration at 30 min is roughly 6500 ng/mL and the concentration at 60 min is roughly 4000 ng/mL.
